This passage reports MIC and fold change (FC) results from ChEMBL document CHEMBL5154863, “Design and synthesis of quinolinium-based derivatives targeting FtsZ for antibacterial evaluation and mechanistic study” (Eur J Med Chem, 2022).

Assay [1] has as its system Escherichia coli. The assay can be described thus: Antibacterial activity against NDM-1 expressing Escherichia coli ATCC BAA2469 assessed as inhibition of bacterial growth incubated for 20 to 24 hrs by broth micro dilution method. The settings on record: time 20-24 hrs. It is filed as functional.
In assay [2] the test system is Acinetobacter baumannii. The assay can be described thus: Antibacterial activity against multi-drug resistant Acinetobacter baumannii ATCC 19606 assessed as inhibition of bacterial growth incubated for 20 to 24 hrs by broth micro dilution method. It is filed as functional. The settings on record: time 20-24 hrs.
Assay [3] has as its system Escherichia coli. As to the kind of experiment: Antibacterial activity against Escherichia coli ATCC 8739 assessed as inhibition of bacterial growth incubated for 20 to 24 hrs by broth micro dilution method. It is filed as functional. The settings on record: time 20-24 hrs.
Assay [4] relates to Enterococcus faecium. As to the kind of experiment: Antibacterial activity against vancomycin resistant Enterococcus faecium ATCC 700221 assessed as inhibition of bacterial growth incubated for 20 to 24 hrs by broth micro dilution method. It is filed as functional. The settings on record: time 20-24 hrs.
In assay [5] the test system is Bacillus subtilis. The assay can be described thus: Antibacterial activity against Bacillus subtilis CMCC (B) 63501 assessed as inhibition of bacterial growth incubated for 20 to 24 hrs by broth micro dilution method. It is filed as functional. The settings on record: time 20-24 hrs.
Assay [6] relates to Staphylococcus aureus. The assay can be described thus: Antibacterial activity against methicillin-resistant Staphylococcus aureus ATCC 43300 assessed as inhibition of bacterial growth incubated for 20 to 24 hrs by broth micro dilution method. It is filed as functional. The settings on record: time 20-24 hrs.
In assay [7] the test system is Staphylococcus aureus. As to the kind of experiment: Antibacterial activity against vancomycin-intermediate Staphylococcus aureus Mu50 assessed as inhibition of bacterial growth incubated for 20 to 24 hrs by broth micro dilution method. It is filed as functional. The settings on record: time 20-24 hrs.
Assay [8] relates to Escherichia coli. The assay can be described thus: Antibacterial activity against Escherichia coli ATCC 25922 assessed as inhibition of bacterial growth incubated for 20 to 24 hrs by broth micro dilution method. It is filed as functional. The settings on record: time 20-24 hrs.
Assay [9] has as its system Staphylococcus aureus. As to the kind of experiment: Antibacterial activity against methicillin-resistant Staphylococcus aureus ATCC BAA-1720 assessed as inhibition of bacterial growth incubated for 20 to 24 hrs by broth micro dilution method. The settings on record: time 20-24 hrs. It is filed as functional.
For assay [10], the system named is Staphylococcus aureus. As to the kind of experiment: Antibacterial activity against Staphylococcus aureus ATCC 29213 assessed as inhibition of bacterial growth incubated for 20 to 24 hrs by broth micro dilution method. It is filed as functional. The settings on record: time 20-24 hrs.
The subject of assay [11] is Staphylococcus epidermidis. The assay can be described thus: Antibacterial activity against Staphylococcus epidermidis ATCC 12228 assessed as inhibition of bacterial growth incubated for 20 to 24 hrs by broth micro dilution method. It is filed as functional. The settings on record: time 20-24 hrs.
The test system of assay [12] is Klebsiella pneumoniae. As to the kind of experiment: Antibacterial activity against NDM-1 expressing Klebsiella pneumoniae ATCC BAA 2470 assessed as inhibition of bacterial growth incubated for 20 to 24 hrs by broth micro dilution method. The settings on record: time 20-24 hrs. It is filed as functional.
Assay [13] has as its system Pseudomonas aeruginosa. As to the kind of experiment: Antibacterial activity against […] Pseudomonas aeruginosa ATCC 27853 assessed as inhibition of bacterial growth incubated for 20 to 24 hrs by broth micro dilution method. It is filed as functional. The settings on record: time 20-24 hrs.
Assay [14] has as its system Enterococcus faecalis. As to the kind of experiment: Antibacterial activity against Enterococcus faecalis ATCC 29212 assessed as inhibition of bacterial growth incubated for 20 to 24 hrs by broth micro dilution method. It is filed as functional. The settings on record: time 20-24 hrs.
Assay [15] deals with Enterococcus faecium. The assay can be described thus: Antibacterial activity against Enterococcus faecium ATCC 49624 assessed as inhibition of bacterial growth incubated for 20 to 24 hrs by broth micro dilution method. It is filed as functional. The settings on record: time 20-24 hrs.
For assay [16], the system named is Staphylococcus aureus. The assay can be described thus: Induction of drug resistance against Staphylococcus aureus ATCC 29213 assessed as fold increase in MIC after 16 passage. It is filed as functional.
Assay [17] concerns Staphylococcus aureus. The assay can be described thus: Antibacterial activity against methicillin-resistant Staphylococcus aureus ATCC 33592 assessed as inhibition of bacterial growth incubated for 20 to 24 hrs by broth micro dilution method. It is filed as functional. The settings on record: time 20-24 hrs.
Assay [18] has as its system Enterococcus faecium. The assay can be described thus: Antibacterial activity against vancomycin-resistant Enterococcus faecium clinical isolate assessed as inhibition of bacterial growth incubated for 20 to 24 hrs by broth micro dilution method. The settings on record: time 20-24 hrs. It is filed as functional.
Assay [19] deals with Staphylococcus aureus. As to the kind of experiment: Antibacterial activity against methicillin-resistant Staphylococcus aureus ATCC BAA41 assessed as inhibition of bacterial growth incubated for 24 hrs by checker board assay. It is filed as functional.
Assay [20] relates to Staphylococcus aureus. As to the kind of experiment: microbe, parasite or virus in culture. The settings on record: ATCC BAA41, 24 h.
Description: Synergistic antibacterial activity against methicillin-resistant Staphylococcus aureus ATCC BAA41 assessed as inhibition of bacterial growth incubated for 24 hrs in presence of (E)-4-(4-(dimethylamino)styryl)-1-methyl-2-(4-methylpiperidin-1-yl)quinolin-1-ium iodide by checker board assay
Assay [21] concerns Staphylococcus aureus. The assay can be described thus: microbe, parasite or virus in culture. The settings on record: ATCC BAA41, 24 h. The source holds these as a separate data set.
Description: Synergistic antibacterial activity against methicillin-resistant Staphylococcus aureus ATCC BAA41 assessed as inhibition of bacterial growth incubated for 24 hrs in presence of (E)-2-(4-(dimethylamino)styryl)-1-methyl-4-(4-methylpiperidin-1-yl)quinolin-1-ium iodide by checker board assay
The test system of assay [22] is Staphylococcus aureus. As to the kind of experiment: microbe, parasite or virus in culture. The settings on record: ATCC BAA41, 24 h. This is another data set of the same source.
Description: Synergistic antibacterial activity against methicillin-resistant Staphylococcus aureus ATCC BAA41 assessed as inhibition of bacterial growth incubated for 24 hrs in presence of (E)-2-(4-(dimethylamino)styryl)-1-methyl-4-(piperidin-1-yl)quinolin-1-ium iodide by checker board assay
In assay [23] the test system is Staphylococcus aureus. As to the kind of experiment: microbe, parasite or virus in culture. The settings on record: ATCC BAA41, 24 h. This is another data set of the same source.
Description: Synergistic antibacterial activity against methicillin-resistant Staphylococcus aureus ATCC BAA41 assessed as inhibition of bacterial growth incubated for 24 hrs in presence of (E)-2-(4-(dimethylamino)styryl)-1-methyl-4-(pentylamino)quinolin-1-ium iodide by checker board assay

In brackets after ≈: the same amount, converted by molar mass.

`CO[C@H]1/C=C/O[C@@]2(C)Oc3c(C)c(O)c4c(O)c(c(/C=N/N5CCN(C)CC5)c(O)c4c3C2=O)NC(=O)/C(C)=C\C=C\[C@H](C)[C@H](O)[C@@H](C)[C@@H](O)[C@@H](C)[C@H](OC(C)=O)[C@@H]1C` [RIFAMPIN]: the MIC in assay [1] was over 64 µg/mL; in assay [2], over 64 µg/mL; in [3], 8 µg/mL (≈ 9.72 µM); in assay [4], under 0.125 µg/mL; in assay [5] it was 0.125 µg/mL (≈ 0.152 µM); in [6], under 0.125 µg/mL. The MIC in assay [7] was 0.125 µg/mL (≈ 0.152 µM); in assay [8] it was 2 µg/mL (≈ 2.43 µM); in [9], under 0.125 µg/mL; in assay [10], 0.5 µg/mL (≈ 0.608 µM); in [11], 1 µg/mL (≈ 1.22 µM); in assay [12], over 64 µg/mL. For the same molecule, the MIC in assay [13] is over 64 µg/mL; in assay [14] it was 0.125 µg/mL (≈ 0.152 µM); in assay [15], under 0.125 µg/mL; in assay [17], over 64 µg/mL; in [18], 8 µg/mL (≈ 9.72 µM). For the same molecule, the fold change (FC) in assay [16] was found to be 4096.

On to `COc1cccc(OC)c1C(=O)N[C@@H]1C(=O)N2[C@@H]1SC(C)(C)[C@@H]2C(=O)O` [METHICILLIN], for which the MIC in assay [19] was found to be 1020 µg/mL; in assay [20], 64 µg/mL (≈ 168 µM); in [21] it was 64 µg/mL (≈ 168 µM); in [22], 128 µg/mL (≈ 336 µM); in [23], 256 µg/mL (≈ 673 µM).
